pIC50: −log10 of the molar value.
How the values were obtained:
Format in all cases: biochemical
Conditions in all cases: D-compounds panel data; 1 μM ATP
EGFR = EGFR (Homo sapiens, UniProt P00533); test: Inhibition of a panel of kinases, in vitro HotSpot kinase assay: EGFR
Method: (§1) The degree of inhibition of a panel of kinases is determined using the in vitro HotSpot kinase assay (purified enzymes, ^33P-ATP, an appropriate substrate and 1 μM ATP).

ITK = biological target: T1, ITK (Homo sapiens, UniProt Q08881); test: Inhibition of a panel of kinases, in vitro HotSpot kinase assay: ITK
T1 sequence (Q08881 1-620): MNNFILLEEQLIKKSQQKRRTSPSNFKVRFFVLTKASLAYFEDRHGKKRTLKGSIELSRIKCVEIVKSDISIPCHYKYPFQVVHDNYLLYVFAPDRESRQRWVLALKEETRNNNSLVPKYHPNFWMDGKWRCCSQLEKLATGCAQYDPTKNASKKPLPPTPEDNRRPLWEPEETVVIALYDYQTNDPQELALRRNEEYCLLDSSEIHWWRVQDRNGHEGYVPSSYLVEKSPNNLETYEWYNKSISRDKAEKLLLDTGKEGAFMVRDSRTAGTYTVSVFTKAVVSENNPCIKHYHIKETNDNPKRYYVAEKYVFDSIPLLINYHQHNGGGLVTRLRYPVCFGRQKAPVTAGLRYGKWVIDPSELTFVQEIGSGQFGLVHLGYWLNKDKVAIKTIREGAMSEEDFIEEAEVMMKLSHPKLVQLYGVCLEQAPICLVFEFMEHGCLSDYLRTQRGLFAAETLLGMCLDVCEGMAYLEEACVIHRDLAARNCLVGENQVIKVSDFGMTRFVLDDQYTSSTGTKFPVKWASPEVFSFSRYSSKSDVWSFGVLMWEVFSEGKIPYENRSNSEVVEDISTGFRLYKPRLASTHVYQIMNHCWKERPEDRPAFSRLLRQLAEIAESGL
Method: as §1

TEC = biological target: T2, TEC (Homo sapiens, UniProt P42680); test: Inhibition of a panel of kinases, in vitro HotSpot kinase assay: TEC
T2 sequence (P42680 1-631): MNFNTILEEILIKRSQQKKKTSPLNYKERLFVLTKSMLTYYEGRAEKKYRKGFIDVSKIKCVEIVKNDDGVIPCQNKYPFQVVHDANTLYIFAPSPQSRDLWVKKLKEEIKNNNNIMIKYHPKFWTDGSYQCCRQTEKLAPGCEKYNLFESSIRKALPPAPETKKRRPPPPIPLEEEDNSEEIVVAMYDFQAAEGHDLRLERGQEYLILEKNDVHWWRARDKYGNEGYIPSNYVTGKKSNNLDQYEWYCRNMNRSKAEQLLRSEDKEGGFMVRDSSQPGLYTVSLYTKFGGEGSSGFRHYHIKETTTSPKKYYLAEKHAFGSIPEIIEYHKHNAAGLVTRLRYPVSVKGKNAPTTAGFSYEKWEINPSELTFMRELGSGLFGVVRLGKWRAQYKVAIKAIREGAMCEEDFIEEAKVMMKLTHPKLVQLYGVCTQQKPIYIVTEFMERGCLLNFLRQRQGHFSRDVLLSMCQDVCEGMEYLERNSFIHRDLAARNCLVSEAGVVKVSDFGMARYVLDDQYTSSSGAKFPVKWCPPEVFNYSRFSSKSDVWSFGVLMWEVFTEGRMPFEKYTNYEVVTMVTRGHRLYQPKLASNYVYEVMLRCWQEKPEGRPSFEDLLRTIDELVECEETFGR
Method: as §1

Sequence of EGFR (P00533 25-1210): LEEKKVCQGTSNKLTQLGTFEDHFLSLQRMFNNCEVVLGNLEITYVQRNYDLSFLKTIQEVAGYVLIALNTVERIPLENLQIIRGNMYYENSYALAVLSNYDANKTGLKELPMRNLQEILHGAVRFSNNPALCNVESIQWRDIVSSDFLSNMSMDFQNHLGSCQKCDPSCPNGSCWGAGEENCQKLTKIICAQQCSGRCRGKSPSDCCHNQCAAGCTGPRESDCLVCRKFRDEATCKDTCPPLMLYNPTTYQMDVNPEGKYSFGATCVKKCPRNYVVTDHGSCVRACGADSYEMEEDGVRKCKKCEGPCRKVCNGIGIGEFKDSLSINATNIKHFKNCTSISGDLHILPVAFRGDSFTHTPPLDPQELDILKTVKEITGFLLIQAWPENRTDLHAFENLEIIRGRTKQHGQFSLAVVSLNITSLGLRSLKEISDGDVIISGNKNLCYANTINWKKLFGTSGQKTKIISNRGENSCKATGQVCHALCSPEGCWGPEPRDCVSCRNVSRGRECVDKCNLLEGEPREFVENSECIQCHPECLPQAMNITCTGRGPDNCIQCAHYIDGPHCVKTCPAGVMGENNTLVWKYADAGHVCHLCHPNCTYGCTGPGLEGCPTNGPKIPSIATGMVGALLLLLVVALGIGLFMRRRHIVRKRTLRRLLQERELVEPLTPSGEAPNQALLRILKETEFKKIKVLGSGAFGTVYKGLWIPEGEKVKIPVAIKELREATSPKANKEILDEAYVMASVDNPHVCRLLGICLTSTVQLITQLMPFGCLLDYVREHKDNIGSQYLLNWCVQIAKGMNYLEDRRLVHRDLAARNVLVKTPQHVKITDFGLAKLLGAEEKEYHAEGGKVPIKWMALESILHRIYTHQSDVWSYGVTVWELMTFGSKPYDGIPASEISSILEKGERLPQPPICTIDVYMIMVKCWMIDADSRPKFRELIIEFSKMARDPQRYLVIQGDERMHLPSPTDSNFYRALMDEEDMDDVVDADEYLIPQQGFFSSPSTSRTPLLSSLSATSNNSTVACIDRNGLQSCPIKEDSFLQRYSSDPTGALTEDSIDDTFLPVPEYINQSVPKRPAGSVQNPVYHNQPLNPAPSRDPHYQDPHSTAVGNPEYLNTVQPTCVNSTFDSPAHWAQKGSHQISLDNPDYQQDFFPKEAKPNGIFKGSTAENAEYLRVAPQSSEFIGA

SMILES: CC(=O)N1CCN(c2ccc(Nc3nc(N4CCC[C@@H](NC(=O)c5ccc(C6CC6)cc5)[C@H]4C)cnc3C(N)=O)cc2)CC1 [Example D-295, 3-{[4-(4-acetylpiperazin-1-yl)phenyl]amino}-5-[(2R,3R)-3-(4-cyclopropylbenzamido)-2-methylpiperidin-1-yl]pyrazine-2-carboxamide]
- pIC50 (EGFR): 6.00 to 7.00
- pIC50 (ITK): 6.00 to 7.00
- pIC50 (TEC): ≥ 8.00

SMILES: CC(=O)N1CCC(c2ccc(Nc3nc(N4CCC[C@@H](NC(=O)c5ccc(C6CC6)cc5)[C@H]4C)cnc3C(N)=O)cc2)CC1 [Example D-296, 3-{[4-(1-acetylpiperidin-4-yl)phenyl]amino}-5-[(2R,3R)-3-(4-cyclopropylbenzamido)-2-methylpiperidin-1-yl]pyrazine-2-carboxamide]
- pIC50 (EGFR): 6.00 to 7.00
- pIC50 (ITK): 6.00 to 7.00
- pIC50 (TEC): 7.00 to 8.00

SMILES: C[C@@H]1[C@H](NC(=O)c2ccc(C3CC3)cn2)CCCN1c1cnc(C(N)=O)c(Nc2ccc(OC3CCN(C)CC3)cc2)n1 [Example D-297, 5-[(2R,3R)-3-(5-cyclopropylpyridine-2-amido)-2-methylpiperidin-1-yl]-3-({4-[(1-methylpiperidin-4-yl)oxy]phenyl}amino)pyrazine-2-carboxamide]
- pIC50 (EGFR): 6.00 to 7.00
- pIC50 (ITK): 7.00 to 8.00
- pIC50 (TEC): ≥ 8.00

SMILES: C[C@@H]1[C@H](NC(=O)c2ccc(C(C)(C)O)cc2)CCCN1c1nnc(C(N)=O)c(Nc2cnn(C)c2)n1 [Example D-298, 3-[(2R,3R)-3-[4-(2-hydroxypropan-2-yl)benzamido]-2-methylpiperidin-1-yl]-5-[(1-methyl-1H-pyrazol-4-yl)amino]-1,2,4-triazine-6-carboxamide]
- pIC50 (EGFR): 5.00 to 6.00
- pIC50 (ITK): 7.00 to 8.00
- pIC50 (TEC): ≥ 8.00

SMILES: CCOCCOc1ccc(Nc2nc(N3CCC[C@@H](NC(=O)c4ccc(C5CC5)cc4)[C@H]3C)cnc2C(N)=O)cc1 [Example D-299, 5-[(2R,3R)-3-(4-cyclopropylbenzamido)-2-methylpiperidin-1-yl]-3-{[4-(2-ethoxyethoxy)phenyl]amino}pyrazine-2-carboxamide]
- pIC50 (EGFR): < 5.00
- pIC50 (ITK): < 5.00
- pIC50 (TEC): 7.00 to 8.00

SMILES: C[C@@H]1[C@H](NC(=O)c2ccc(C3CC3)cc2)CCCN1c1cnc(C(N)=O)c(NCC2=CCN(C)CC2)n1 [Example D-300, 5-[(2R,3R)-3-(4-cyclopropylbenzamido)-2-methylpiperidin-1-yl]-3-{[(1-methyl-1,2,3,6-tetrahydropyridin-4-yl)methyl]amino}pyrazine-2-carboxamide]
- pIC50 (EGFR): < 5.00
- pIC50 (ITK): < 5.00
- pIC50 (TEC): < 5.00

SMILES: C[C@@H]1[C@H](NC(=O)c2ccc(C3CC3)cc2)CCCN1c1cnc(C(N)=O)c(Nc2ccc(C3CCN(C)CC3)cc2)n1 [Example D-301, 5-[(2R,3R)-3-(4-cyclopropylbenzamido)-2-methylpiperidin-1-yl]-3-{[4-(1-methylpiperidin-4-yl)phenyl]amino}pyrazine-2-carboxamide]
- pIC50 (EGFR): 6.00 to 7.00
- pIC50 (ITK): 6.00 to 7.00
- pIC50 (TEC): 7.00 to 8.00

SMILES: C[C@@H]1[C@H](NC(=O)c2ccc(C(C)(C)O)cc2F)CCCN1c1cnc(C(N)=O)c(Nc2cnn(C)c2)n1 [Example D-302, 5-[(2R,3R)-3-[2-fluoro-4-(2-hydroxypropan-2-yl)benzamido]-2-methylpiperidin-1-yl]-3-[(1-methyl-1H-pyrazol-4-yl)amino]pyrazine-2-carboxamide]
- pIC50 (EGFR): 7.00 to 8.00
- pIC50 (ITK): 7.00 to 8.00
- pIC50 (TEC): ≥ 8.00

SMILES: C[C@@H]1[C@H](NC(=O)c2ccc(C3CC3)cc2)CCCN1c1cnc(C(N)=O)c(Nc2ccc3c(c2)CCOC3)n1 [Example D-303, 5-[(2R,3R)-3-(4-cyclopropylbenzamido)-2-methylpiperidin-1-yl]-3-[(3,4-dihydro-1H-2-benzopyran-6-yl)amino]pyrazine-2-carboxamide]
- pIC50 (EGFR): < 5.00
- pIC50 (ITK): 5.00 to 6.00
- pIC50 (TEC): 7.00 to 8.00

SMILES: CCN(C)C(=O)N[C@@H]1CCCN(c2cnc(C(N)=O)c(Nc3cnn(C)c3)n2)[C@@H]1C [Example D-304, 5-[(2R,3R)-3-{[ethyl(methyl)carbamoyl]amino}-2-methylpiperidin-1-yl]-3-[(1-methyl-1H-pyrazol-4-yl)amino]pyrazine-2-carboxamide]
- pIC50 (EGFR): 5.00 to 6.00
- pIC50 (ITK): 5.00 to 6.00
- pIC50 (TEC): 7.00 to 8.00

SMILES: C[C@@H]1[C@H](NC(=O)c2ccc(C3CC3)nc2)CCCN1c1cnc(C(N)=O)c(Nc2ccc(N3CCC(F)(F)CC3)cc2)n1 [Example D-305, 5-[(2R,3R)-3-(6-cyclopropylpyridine-3-amido)-2-methylpiperidin-1-yl]-3-{[4-(4,4-difluoropiperidin-1-yl)phenyl]amino}pyrazine-2-carboxamide]
- pIC50 (EGFR): 5.00 to 6.00
- pIC50 (ITK): 6.00 to 7.00
- pIC50 (TEC): 7.00 to 8.00

SMILES: C[C@@H]1[C@H](NC(=O)N(C)C)CCCN1c1cnc(C(N)=O)c(Nc2ccc(N3CCC(F)(F)CC3)cc2)n1 [Example D-306, 3-{[4-(4,4-difluoropiperidin-1-yl)phenyl]amino}-5-[(2R,3R)-3-[(dimethylcarbamoyl)amino]-2-methylpiperidin-1-yl]pyrazine-2-carboxamide]
- pIC50 (EGFR): 5.00 to 6.00
- pIC50 (ITK): 6.00 to 7.00
- pIC50 (TEC): 7.00 to 8.00

SMILES: C[C@@H]1[C@H](NC(=O)c2ccc(C3CC3)cc2)CCCN1c1cnc(C(N)=O)c(Nc2cnn(C3CCC(F)(F)CC3)c2)n1 [Example D-307, 5-[(2R,3R)-3-(4-cyclopropylbenzamido)-2-methylpiperidin-1-yl]-3-{[1-(4,4-difluorocyclohexyl)-1H-pyrazol-4-yl]amino}pyrazine-2-carboxamide]
- pIC50 (EGFR): < 5.00
- pIC50 (ITK): 5.00 to 6.00
- pIC50 (TEC): 7.00 to 8.00

SMILES: C[C@@H]1[C@H](NC(=O)c2ccc(C(C)(C)O)cc2F)CCCN1c1nnc(C(N)=O)c(Nc2cnn(C)c2)n1 [Example D-308, 3-[(2R,3R)-3-[2-fluoro-4-(2-hydroxypropan-2-yl)benzamido]-2-methylpiperidin-1-yl]-5-[(1-methyl-1H-pyrazol-4-yl)amino]-1,2,4-triazine-6-carboxamide]
- pIC50 (EGFR): 5.00 to 6.00
- pIC50 (ITK): 7.00 to 8.00
- pIC50 (TEC): ≥ 8.00

SMILES: C[C@@H]1[C@H](NC(=O)c2ccc(C3CC3)nc2)CCCN1c1cnc(C(N)=O)c(Nc2ccc(OC3CCOCC3)cc2)n1 [Example D-309, 5-[(2R,3R)-3-(6-cyclopropylpyridine-3-amido)-2-methylpiperidin-1-yl]-3-{[4-(oxan-4-yloxy)phenyl]amino}pyrazine-2-carboxamide]
- pIC50 (EGFR): 6.00 to 7.00
- pIC50 (ITK): 6.00 to 7.00
- pIC50 (TEC): ≥ 8.00

SMILES: C[C@@H]1[C@H](NC(=O)c2ccc(C3CC3)cc2)CCCN1c1cnc(C(N)=O)c(Nc2cc(C3CCOCC3)ns2)n1 [Example D-310, 5-[(2R,3R)-3-(4-cyclopropylbenzamido)-2-methylpiperidin-1-yl]-3-{[3-(oxan-4-yl)-1,2-thiazol-5-yl]amino}pyrazine-2-carboxamide]
- pIC50 (EGFR): 5.00 to 6.00
- pIC50 (ITK): 7.00 to 8.00
- pIC50 (TEC): ≥ 8.00

SMILES: C[C@@H]1[C@H](NC(=O)c2ccc(C3CC3)cc2)CCCN1c1cnc(C(N)=O)c(Nc2cc(C3CCN(C4CCCC4)CC3)ns2)n1 [Example D-311, 3-{[3-(1-cyclopentylpiperidin-4-yl)-1,2-thiazol-5-yl]amino}-5-[(2R,3R)-3-(4-cyclopropylbenzamido)-2-methylpiperidin-1-yl]pyrazine-2-carboxamide]
- pIC50 (EGFR): 5.00 to 6.00
- pIC50 (ITK): 7.00 to 8.00
- pIC50 (TEC): 7.00 to 8.00

SMILES: C[C@@H]1[C@H](NC(=O)c2ccc(C3CC3)cc2)CCCN1c1cnc(C(N)=O)c(Nc2cc(C3CCN(C)CC3)ns2)n1 [Example D-312, 5-[(2R,3R)-3-(4-cyclopropylbenzamido)-2-methylpiperidin-1-yl]-3-{[3-(1-methylpiperidin-4-yl)-1,2-thiazol-5-yl]amino}pyrazine-2-carboxamide]
- pIC50 (EGFR): 6.00 to 7.00
- pIC50 (ITK): 7.00 to 8.00
- pIC50 (TEC): ≥ 8.00

SMILES: C[C@@H]1[C@H](NC(=O)c2ccc(C3CC3)cc2F)CCCN1c1cnc(C(N)=O)c(Nc2ccc(N3CCNCC3)c(F)c2)n1 [Example D-313, 5-[(2R,3R)-3-(4-cyclopropyl-2-fluorobenzamido)-2-methylpiperidin-1-yl]-3-{[3-fluoro-4-(piperazin-1-yl)phenyl]amino}pyrazine-2-carboxamide]
- pIC50 (EGFR): 6.00 to 7.00
- pIC50 (ITK): 7.00 to 8.00
- pIC50 (TEC): ≥ 8.00

From US20210070748A1, “INHIBITORS OF BRUTONS TYROSINE KINASE” (Pharmacyclics LLC, priority 2015, published 2021)
